# Reference: ChEMBL document CHEMBL1165891, “Synthesis and evaluation of novel chromone analogs for their inhibitory activity against interleukin-5” (Eur J Med Chem, 2010)
# How the values were obtained:
# [1] = Antiinflammatory activity against mouse Y16 cells assessed as inhibition of IL5 production; type: functional, cell-based
# [2] = Antiinflammatory activity against mouse Y16 cells assessed as inhibition of IL5 production at 30 uM; type: functional
# [3] = Antiinflammatory activity against mouse Y16 cells assessed as inhibition of IL5 production at 50 uM; type: functional
Structure (SMILES),IC50 [1] [µM],inhibition at 30 µM [2] [%],inhibition at 50 µM [3] [%]
Cc1ccc(Cc2coc3cccc(OCCC(C)C)c3c2=O)cc1,> 30,35,–
O=C(O)c1coc2cccc(OCC3CCCCC3)c2c1=O,> 30,43,–
CC(C)COc1cccc2occ(CCC(=O)O)c(=O)c12,> 30,< 10,–
O=c1c(/C=N/O)coc2cccc(OCC3CCCCC3)c12,> 30,< 10,–
O=c1c(CCl)coc2cccc(OCC3CCCCC3)c12,> 30,45,–
CC(C)COc1cccc2occ(CCl)c(=O)c12,> 30,43,–
NS(=O)(=O)c1ccc(Cc2coc3cccc(OCC4CCCCC4)c3c2=O)cc1,> 30,31,–
CC(C)COc1cccc2occ(C(=O)O)c(=O)c12,> 30,33,–
O=C(O)CCc1coc2cccc(OCC3CCCCC3)c2c1=O,> 30,< 10,–
CC(C)COc1cccc2occ(/C=N/O)c(=O)c12,> 30,< 10,–
CC(C)CCOc1cccc2occ(Cc3ccc(O)cc3)c(=O)c12,> 30,36,–

# More lines, main results first:
IC50 [1] [µM],Structure (SMILES),inhibition at 30 µM [2] [%],inhibition at 50 µM [3] [%]
22.9,O=c1c(Cc2ccccc2)coc2cccc(OCC3CCCCC3)c12,56,–
< 3,O=c1c(Cc2ccc(O)cc2)coc2cccc(OCC3CCCCC3)c12,98,–
7.6,O=c1c(CO)coc2cccc(OCC3CCCCC3)c12,84,–
21.6,CC(C)COc1cccc2occ(CO)c(=O)c12,56,–
> 30,CCc1ccc(Cc2coc3cccc(OCC4CCCCC4)c3c2=O)cc1,45,–
> 30,O=c1c(Cc2ccc(Cl)cc2)coc2cccc(OCC3CCCCC3)c12,36,–
> 30,O=c1c(Cc2ccc(C(F)(F)F)cc2)coc2cccc(OCC3CCCCC3)c12,47,–
12.3,O=C(O)c1ccc(Cc2coc3cccc(OCC4CCCCC4)c3c2=O)cc1,77,–
14.8,Cc1ccc(Cc2coc3cccc(OCC4CCCCC4)c3c2=O)cc1,86,–
11.4,CC(C)COc1cccc2occ(Cc3ccc(C(=O)O)cc3)c(=O)c12,73,–
12.5,COc1cc(Cc2coc3cccc(OCC4CCCCC4)c3c2=O)cc(OC)c1OC,85,–
10.3,O=c1c(-c2ccc(O[C@@H]3O[C@H](CO)[C@@H](O)[C@H](O)[C@H]3O)cc2)coc2cc(O)cc(O)c12 [SOPHORICOSIDE],–,93.8
